# Assay results as given in PubChem BioAssay (NCI).
#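 Step 1: Grow cells in 96-well plates. Step 2: Expose to compound for 48 hours at 5 concentrations. Step 3: Interpolate endpoints linearly; if unreached, use highest concentration. TGI denotes the concentration required for complete inhibition of growth.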
# Experiments:
# Assay in all cases: inhibition of tumour cell growth, NCI panel, 48 h
# [1] = tested on: 786-0 renal
# [2] = tested on: A498 renal
# [3] = tested on: ACHN renal
# [4] = tested on: BT-549 breast
# [5] = tested on: CAKI-1 renal
# [6] = tested on: CCRF-CEM leukemia
# [7] = tested on: COLO 205 colon
# [8] = tested on: DU-145 prostate
# [9] = tested on: EKVX NSCLC
# [10] = tested on: HCC-2998 colon
# [11] = tested on: HCT-116 colon
# [12] = tested on: HCT-15 colon
# [13] = tested on: HL-60(TB) leukemia
# [14] = tested on: HOP-62 NSCLC
# [15] = tested on: HOP-92 NSCLC
# [16] = tested on: HS 578T breast
# [17] = tested on: IGROV1 ovarian
# [18] = tested on: K-562 leukemia
# [19] = tested on: KM12 colon
# [20] = tested on: LOX IMVI melanoma
# [21] = tested on: M14 melanoma
# [22] = tested on: MCF7 breast
# [23] = tested on: MDA-MB-231 breast
# [24] = tested on: MDA-MB-435
# [25] = tested on: MDA-N
# [26] = tested on: MOLT-4 leukemia
# [27] = tested on: NCI-H226 lung
# [28] = tested on: NCI-H23 lung
# [29] = tested on: NCI-H460 lung
# [30] = tested on: NCI-H522 lung
# [31] = tested on: NCI/ADR-RES ovarian
# [32] = tested on: OVCAR-3 ovarian
# [33] = tested on: OVCAR-4 ovarian
# [34] = tested on: OVCAR-5 ovarian
# [35] = tested on: OVCAR-8 ovarian
# [36] = tested on: PC-3 prostate
# [37] = tested on: RPMI-8226 leukemia
# [38] = tested on: RXF 393 renal
# [39] = tested on: SF-268 CNS
# [40] = tested on: SF-295 CNS
# [41] = tested on: SF-539 CNS
# [42] = tested on: SK-MEL-2 melanoma
# [43] = tested on: SK-MEL-5 melanoma
# [44] = tested on: SK-OV-3 ovarian
# [45] = tested on: SN12C renal
# [46] = tested on: SNB-19 CNS
# [47] = tested on: SNB-75 CNS
# [48] = tested on: SR leukemia
# [49] = tested on: SW-620 colon
# [50] = tested on: T-47D breast
# [51] = tested on: TK-10 renal
# [52] = tested on: U251 CNS
# [53] = tested on: UACC-257 melanoma
# [54] = tested on: UACC-62 melanoma
# [55] = tested on: UO-31 renal
# [56] = tested on: A549 NSCLC
# [57] = tested on: HT29 colon
# [58] = tested on: MALME-3M melanoma
# [59] = tested on: SK-MEL-28 melanoma
smiles,measurement,setting,value
O=[N+]([O-])c1ccc(N=NN2CCCC2)cc1,TGI,[1],> 100 µM
same,TGI,[2],> 100 µM
same,TGI,[3],> 100 µM
same,TGI,[4],> 100 µM
same,TGI,[5],> 100 µM
same,TGI,[6],> 100 µM
same,TGI,[7],> 100 µM
same,TGI,[8],> 100 µM
same,TGI,[9],> 100 µM
same,TGI,[10],20.6 µM
same,TGI,[11],> 100 µM
same,TGI,[12],> 100 µM
same,TGI,[13],> 100 µM
same,TGI,[14],> 100 µM
same,TGI,[15],> 100 µM
same,TGI,[16],> 100 µM
same,TGI,[17],> 100 µM
same,TGI,[18],> 100 µM
same,TGI,[19],> 100 µM
same,TGI,[20],> 100 µM
same,TGI,[21],> 100 µM
same,TGI,[22],> 100 µM
same,TGI,[23],> 100 µM
same,TGI,[24],> 100 µM
same,TGI,[25],> 100 µM
same,TGI,[26],> 100 µM
same,TGI,[27],> 100 µM
same,TGI,[28],> 100 µM
same,TGI,[29],> 100 µM
same,TGI,[30],> 100 µM
same,TGI,[31],> 100 µM
same,TGI,[32],> 100 µM
same,TGI,[33],> 100 µM
same,TGI,[34],> 100 µM
same,TGI,[35],> 100 µM
same,TGI,[36],> 100 µM
same,TGI,[37],> 100 µM
same,TGI,[38],> 100 µM
same,TGI,[39],> 100 µM
same,TGI,[40],> 100 µM
same,TGI,[41],> 100 µM
same,TGI,[42],> 100 µM
same,TGI,[43],> 100 µM
same,TGI,[44],> 100 µM
same,TGI,[45],> 100 µM
same,TGI,[46],> 100 µM
same,TGI,[47],> 100 µM
same,TGI,[48],> 100 µM
same,TGI,[49],> 100 µM
same,TGI,[50],> 100 µM
same,TGI,[51],> 100 µM
same,TGI,[52],> 100 µM
same,TGI,[53],> 100 µM
same,TGI,[54],> 100 µM
same,TGI,[55],> 100 µM
O=C(Nc1ccc2c(c1)oc(=O)c1ccccc12)C(Cl)Cl,TGI,[1],> 100 µM
same,TGI,[2],> 100 µM
same,TGI,[56],> 100 µM
same,TGI,[3],> 100 µM
same,TGI,[4],> 100 µM
same,TGI,[5],> 100 µM
same,TGI,[6],> 100 µM
same,TGI,[7],> 100 µM
same,TGI,[8],> 100 µM
same,TGI,[9],> 100 µM
same,TGI,[10],> 100 µM
same,TGI,[11],> 100 µM
same,TGI,[12],> 100 µM
same,TGI,[13],25.5 µM
same,TGI,[14],> 100 µM
same,TGI,[15],> 100 µM
same,TGI,[16],> 100 µM
same,TGI,[57],97.8 µM
same,TGI,[17],> 100 µM
same,TGI,[18],> 100 µM
same,TGI,[19],> 100 µM
same,TGI,[20],> 100 µM
same,TGI,[21],> 100 µM
same,TGI,[58],> 100 µM
same,TGI,[22],> 100 µM
same,TGI,[23],> 100 µM
same,TGI,[24],> 100 µM
same,TGI,[25],> 100 µM
same,TGI,[26],> 100 µM
same,TGI,[27],> 100 µM
same,TGI,[28],> 100 µM
same,TGI,[29],92.5 µM
same,TGI,[30],> 100 µM
same,TGI,[31],> 100 µM
same,TGI,[32],73.8 µM
same,TGI,[34],> 100 µM
same,TGI,[35],> 100 µM
same,TGI,[36],> 100 µM
same,TGI,[37],32.5 µM
same,TGI,[38],> 100 µM
same,TGI,[39],> 100 µM
same,TGI,[40],> 100 µM
same,TGI,[41],> 100 µM
same,TGI,[42],> 100 µM
same,TGI,[59],> 100 µM
same,TGI,[43],> 100 µM
same,TGI,[45],> 100 µM
same,TGI,[46],> 100 µM
same,TGI,[47],> 100 µM
same,TGI,[48],> 100 µM
same,TGI,[49],> 100 µM
same,TGI,[50],> 100 µM
same,TGI,[52],> 100 µM
same,TGI,[53],> 100 µM
same,TGI,[54],> 100 µM
same,TGI,[55],> 100 µM
